From the NIST ThermoML archive (doi:10.1016/j.fluid.2013.07.044)

Experiment: Boiling temperature at pressure P
Settings: Liquid, Ebulliometric method (Recirculating still)

CCCCCCC [heptane]
Settings	Boiling temperature at pressure P [°C]
10.23 kPa	35.76
16.91 kPa	47.28
23.5 kPa	55.43
35.39 kPa	66.27
56.16 kPa	79.51
67.57 kPa	85.09
74.44 kPa	88.22
79.37 kPa	90.30
86.51 kPa	93.16
100.11 kPa	98.06

C1CCCCC1 [cyclohexane]
Settings	Boiling temperature at pressure P [°C]
24.08 kPa	39.63
30.7 kPa	45.81
38.72 kPa	51.92
46.85 kPa	57.17
55.2 kPa	61.86
61.52 kPa	65.06
69.06 kPa	68.52
77.87 kPa	72.22
85.44 kPa	75.13
91.68 kPa	77.38
101.32 kPa	80.63

CCO [ethanol]
Settings	Boiling temperature at pressure P [°C]
20.14 kPa	42.46
30.24 kPa	50.67
40.31 kPa	56.77
50.39 kPa	61.69
70.33 kPa	69.34
80.63 kPa	72.62
85.67 kPa	74.11
98.45 kPa	77.53
100.79 kPa	78.13
110.86 kPa	80.53
120.93 kPa	82.77
131.02 kPa	84.84
141.1 kPa	86.79
151.1 kPa	88.62
160 kPa	90.41
170 kPa	92.09
180 kPa	93.62
190 kPa	95.16
200 kPa	96.60

CCCCCCCC [octane]
Settings	Boiling temperature at pressure P [°C]
22.95 kPa	79.68
29.98 kPa	87.07
37.87 kPa	93.74
44.82 kPa	98.74
52.81 kPa	103.78
59.85 kPa	107.72
66.66 kPa	111.21
75.23 kPa	115.23
82.72 kPa	118.44
89.51 kPa	121.17
99.01 kPa	124.72

CCCO [propan-1-ol]
Settings	Boiling temperature at pressure P [°C]
69.79 kPa	87.71
74.92 kPa	89.5
79.6 kPa	90.96
84.8 kPa	92.6
89.78 kPa	93.99
94.77 kPa	95.37
99.7 kPa	96.67
105.14 kPa	98.2
110.1 kPa	99.27
113.19 kPa	100.00
120.75 kPa	101.73
130.1 kPa	103.76
171 kPa	111.42
199.9 kPa	115.99
228.5 kPa	120.00
229.9 kPa	120.20
260 kPa	123.98
290 kPa	127.42
310 kPa	129.56
330 kPa	131.59
350 kPa	133.54
380 kPa	136.28
400 kPa	138.03
420 kPa	139.69
450 kPa	142.08
480 kPa	144.37
500 kPa	145.81
520 kPa	147.22
530 kPa	147.91
550 kPa	149.26
561.5 kPa	150.01
